In patent US20080138463A1, “Lactobacillus buchneri strain LN5689 and its use to improve aerobic stability of silage” (Pioneer Hi-Bred International, Inc., priority 2006, published 2008):

Legend:
[1] = Aerobic stability of grass silage (method of Honig); set-up: species or system ryegrass
Description: Second cut ryegrass was harvested at PLNC. The grass was determined to have an approximate dry matter of 35%.
Inoculation: Individual strains were supplied as fresh grown overnight culture. Cultures were adjusted to a standard concentration of 5.0×10^7 CFU/mL and applied using a syringe at a rate of 2.2 mL/kg of forage. The application rate for all strains was 1.1×10^5 CFU/g forage. Propionic acid (88%) was applied at a rate of 4.4 mL/kg fresh forage.
PVC Silos: PVC silos were filled at a packing density of 0.288 kg DM/silo (100 kg DM/m^3); approximately 0.82-0.95 kg/silo. Silos were air infused for 24 hours on days 28 and 42, and opened after 50-60 days of ensiling.
Aerobic Stability: The method of Honig (Proc. Of the Eurobac. Conf., P. Lingvall and S. Lindgren (ed.) (12-16 Aug. 1986) Swed. Univ. of Agric. Sci. Grass and Forage Report No. 3-1990. Pp. 76-81. Uppsala, Sweden.) was used for measuring aerobic stability (see Table 1). ROT is defined as the time, in hours, for the silage to heat 1.7° C. after exposure to air. Cumm_DD is the integral value of the area between the time ROT is attained and the end of the experiment. Aerobic dry matter loss (% dry matter) was determined relating the increase in temperature and the time to energy losses occurring in the silage.

[2] = pH of grass silage after ensiling; format: physicochemical, ryegrass; conditions: for pH: PVC silos
Description: Second cut ryegrass was harvested at PLNC. The grass was determined to have an approximate dry matter of 35%. Inoculation: Individual strains were supplied as fresh grown overnight culture. Cultures were adjusted to a standard concentration of 5.0×10^7 CFU/mL and applied using a syringe at a rate of 2.2 mL/kg of forage. The application rate for all strains was 1.1×10^5 CFU/g forage. Propionic acid (88%) was applied at a rate of 4.4 mL/kg fresh forage. PVC Silos: PVC silos were filled at a packing density of 0.288 kg DM/silo (100 kg DM/m^3); approximately 0.82-0.95 kg/silo. Silos were air infused for 24 hours on days 28 and 42, and opened after 50-60 days of ensiling.

[3] = average across replicate studies A, B, C

- Improvement of aerobic stability over the control ([1]; LN5689 1.1×10^5 CFU/g forage, propionic acid (88%) 4.4 mL/kg): 96 h
- pH ([2]; replicate study A): 4.03
- pH ([2]; replicate study B): 4.17
- pH ([2]; replicate study C): 4.18
- pH Avg. [2, 3]: 4.13
SMILES: CCC(=O)O [Propionic Acid, Propionic acid]
- Aerobic deterioration compared with control grass silages [1]: significantly less aerobic deterioration than the control
- Aerobic Dry Matter Loss Avg. [1, 3]: 0.43 % dry matter
- ROT Avg. [1, 3]: 127 h
- Aerobic Dry Matter Loss ([1]; replicate study A): 0.29 % dry matter
- ROT (time for the silage to heat 1.7° C. after exposure to air) ([1]; replicate study A): 137 h
- Aerobic Dry Matter Loss ([1]; replicate study B): 0 % dry matter
- ROT (time for the silage to heat 1.7° C. after exposure to air) ([1]; replicate study B): 160 h
- Aerobic Dry Matter Loss ([1]; replicate study C): 1.01 % dry matter
- ROT (time for the silage to heat 1.7° C. after exposure to air) ([1]; replicate study C): 86 h
